Results from patent publication US8846699B2, “Quinazoline derivatives as a multiplex inhibitor and method for the preparation thereof” (Hanmi Pharm. Co., Ltd., priority 2005, dated 2014).

Experiments:
[1] = tested on: Human Umbilical Vein Endothelial Cell (HUVEC); assay: Inhibitory effect on growth of human umbilical vein endothelial cell (HUVEC), MTS; type: cell-based; settings: Homo sapiens, 96 h, 10 ng/ml VEGF, absorbance 490 nm
VEGFR2 (KDR) = VEGFR2 (KDR) (Homo sapiens (Human), UniProt P35968); assay: VEGFR2 (KDR) enzyme assay, fluorescence polarization; type: biochemical; settings: 5 μM ATP, poly(Glu, Tyr) substrate
Outline: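 Autophosphorylation read by fluorescence polarization: VEGFR2 (Proquinase) at 200 ng/10 μl with 5 μM ATP and 10 ng/ml poly(Glu,Tyr) 4:1, in 20 mM HEPES pH 7.4, 5 mM MgCl2, 2 mM MnCl2, 50 μM Na3VO4. Reaction 1 h at room temperature, EDTA stop, then anti-phosphotyrosine antibody/tracer for 30 min in the dark.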

EGFR1 (HER-1) = EGFR1 (HER-1) (Homo sapiens (Human), UniProt P00533); assay: EGFR1 (HER-1) enzyme assay, fluorescence polarization; type: biochemical; settings: 100 μM ATP, poly(Glu, Tyr) substrate
[2] = tested on: skin cancer cell line, A431; assay: Inhibitory effect on growth of cancer cell line A431, SRB; type: cell-based; settings: Homo sapiens, A-431, 72 h, overexpressed EGFR1 (HER-1)
Outline: (§1)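 Cells were cultured in DMEM with 10% FBS. Compounds were applied at 10 μM with 10-fold serial dilution to 10^−4, DMSO <1%, for 72 h at 37 °C. Cells were then TCA-fixed and stained with 0.4% SRB, and absorbance was read at 570 nm after solubilisation in 10 mM Tris base.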

[3] = tested on: breast cancer cell line, SK-Br3; assay: Inhibitory effect on growth of cancer cell line SK-Br3, SRB; type: cell-based; settings: Homo sapiens, SK-BR-3, 72 h, overexpressed EGFR2 (HER-2)
Outline: as §1

[4] = tested on: colon and rectal cancer cell line, SW-620; assay: Inhibitory effect on growth of cancer cell line SW-620, SRB; type: cell-based; settings: Homo sapiens, 72 h, not having overexpressed EGFR and EGFR2
Outline: as §1

Sequence of EGFR1 (HER-1) (P00533 25-1210): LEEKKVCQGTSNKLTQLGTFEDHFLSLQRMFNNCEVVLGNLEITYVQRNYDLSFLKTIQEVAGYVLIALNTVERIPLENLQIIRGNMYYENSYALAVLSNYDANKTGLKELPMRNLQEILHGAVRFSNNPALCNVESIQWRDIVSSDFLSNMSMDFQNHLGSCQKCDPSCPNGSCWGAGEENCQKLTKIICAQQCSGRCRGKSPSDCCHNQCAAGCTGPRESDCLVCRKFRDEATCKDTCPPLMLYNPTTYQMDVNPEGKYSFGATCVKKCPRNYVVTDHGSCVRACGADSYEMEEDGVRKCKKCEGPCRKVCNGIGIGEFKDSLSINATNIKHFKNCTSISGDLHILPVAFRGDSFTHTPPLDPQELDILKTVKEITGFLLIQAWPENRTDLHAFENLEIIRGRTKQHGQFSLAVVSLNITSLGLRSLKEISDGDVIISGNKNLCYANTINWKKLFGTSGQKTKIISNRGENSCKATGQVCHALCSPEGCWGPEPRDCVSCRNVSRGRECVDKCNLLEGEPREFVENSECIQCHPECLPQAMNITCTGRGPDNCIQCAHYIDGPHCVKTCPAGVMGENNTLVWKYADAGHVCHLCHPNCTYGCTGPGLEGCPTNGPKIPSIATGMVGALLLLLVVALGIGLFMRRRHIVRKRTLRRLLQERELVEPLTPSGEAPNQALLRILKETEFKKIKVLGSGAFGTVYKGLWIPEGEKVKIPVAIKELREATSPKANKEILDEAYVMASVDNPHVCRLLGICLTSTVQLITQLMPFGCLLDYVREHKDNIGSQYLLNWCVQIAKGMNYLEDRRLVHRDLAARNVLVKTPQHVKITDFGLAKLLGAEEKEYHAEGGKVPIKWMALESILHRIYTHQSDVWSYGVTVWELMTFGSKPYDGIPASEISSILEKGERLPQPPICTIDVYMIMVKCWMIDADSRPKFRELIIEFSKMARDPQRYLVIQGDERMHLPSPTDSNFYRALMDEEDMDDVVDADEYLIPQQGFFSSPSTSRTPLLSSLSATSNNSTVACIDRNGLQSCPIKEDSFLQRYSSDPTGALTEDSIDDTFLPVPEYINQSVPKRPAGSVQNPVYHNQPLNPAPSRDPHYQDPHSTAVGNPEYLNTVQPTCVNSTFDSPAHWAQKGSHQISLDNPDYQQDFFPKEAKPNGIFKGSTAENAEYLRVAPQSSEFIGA
Sequence of VEGFR2 (KDR) (P35968 20-1356): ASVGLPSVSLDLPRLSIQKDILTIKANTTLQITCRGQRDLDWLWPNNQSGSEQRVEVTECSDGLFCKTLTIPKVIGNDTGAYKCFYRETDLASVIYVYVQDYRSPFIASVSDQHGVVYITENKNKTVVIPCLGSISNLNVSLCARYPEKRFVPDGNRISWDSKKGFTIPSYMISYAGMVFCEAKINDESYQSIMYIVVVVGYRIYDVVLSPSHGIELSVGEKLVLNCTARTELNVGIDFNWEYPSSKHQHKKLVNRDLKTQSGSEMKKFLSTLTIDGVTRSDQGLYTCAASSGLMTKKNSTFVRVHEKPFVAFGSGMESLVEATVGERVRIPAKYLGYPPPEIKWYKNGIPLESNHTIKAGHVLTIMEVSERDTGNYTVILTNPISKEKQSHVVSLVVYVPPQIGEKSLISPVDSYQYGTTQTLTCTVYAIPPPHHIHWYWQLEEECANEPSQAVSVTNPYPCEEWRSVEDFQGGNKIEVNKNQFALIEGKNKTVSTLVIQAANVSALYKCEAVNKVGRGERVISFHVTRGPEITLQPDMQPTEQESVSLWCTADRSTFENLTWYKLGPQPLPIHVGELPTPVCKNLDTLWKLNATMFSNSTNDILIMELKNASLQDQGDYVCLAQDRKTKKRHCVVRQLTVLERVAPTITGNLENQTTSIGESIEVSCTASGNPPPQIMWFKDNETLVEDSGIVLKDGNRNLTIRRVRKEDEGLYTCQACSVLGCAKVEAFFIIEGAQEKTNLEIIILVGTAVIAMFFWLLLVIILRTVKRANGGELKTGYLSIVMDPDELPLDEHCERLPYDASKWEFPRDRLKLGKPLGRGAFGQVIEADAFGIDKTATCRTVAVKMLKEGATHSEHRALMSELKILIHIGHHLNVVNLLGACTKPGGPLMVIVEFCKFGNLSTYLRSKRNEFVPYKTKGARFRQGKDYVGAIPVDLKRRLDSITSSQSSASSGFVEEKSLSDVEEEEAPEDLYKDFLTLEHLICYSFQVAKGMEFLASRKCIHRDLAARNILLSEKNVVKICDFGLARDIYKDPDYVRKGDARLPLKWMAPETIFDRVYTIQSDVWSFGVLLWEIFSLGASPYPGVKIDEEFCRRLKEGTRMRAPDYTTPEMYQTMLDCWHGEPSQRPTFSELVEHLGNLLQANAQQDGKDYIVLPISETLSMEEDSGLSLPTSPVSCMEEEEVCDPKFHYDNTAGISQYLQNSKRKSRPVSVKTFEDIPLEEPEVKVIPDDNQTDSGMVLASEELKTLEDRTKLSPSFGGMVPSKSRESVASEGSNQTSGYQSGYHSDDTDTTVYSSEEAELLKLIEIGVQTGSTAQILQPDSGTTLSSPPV

Row | SMILES | IC50 (VEGFR2 (KDR)) [nM] | IC50 (EGFR1 (HER-1)) [nM] | IC50 [2] [nM] | IC50 [3] [nM] | IC50 [4] [nM] | IC50 [1] [nM]
1 | C=CC(=O)Nc1cc2c(Nc3ccc(Br)cc3F)ncnc2cc1OCCNC(=O)CN(C)C [Example 25, N-[4-(4-bromo-2-fluoro-phenylamino)-7-[2-(2-dimethylamino-acetylamino)-ethoxy]-quinazolin-6-yl]-acrylamide] | 584 | 2 | 16 | 21 | 5790 | 786
2 | C=CC(=O)Nc1cc2c(Nc3ccc(Br)cc3F)ncnc2cc1OCCNC(=O)C(F)(F)F [Example 28, N-[4-(4-bromo-2-fluoro-phenylamino)-7-[2-(2,2,2-trifluoro-acetylamino)-ethoxy]-quinazolin-6-yl]-acrylamide] | 500 | 23 | 76 | 233 | 9680 | 977
3 | C=CC(=O)Nc1cc2c(Nc3ccc(Br)cc3F)ncnc2cc1OCCN [Example 29, N-[7-(2-amino-ethoxy)-4-(4-bromo-2-fluoro-phenylamino)-quinazolin-6-yl]-acrylamide] | 545 | 4 | 46 | 145 | 10000 | 951
4 | C=CC(=O)Nc1cc2c(Nc3ccc(Br)cc3F)ncnc2cc1OCCNC [Example 30, N-[4-(4-bromo-2-fluoro-phenylamino)-7-(2-methylamino-ethoxy)-quinazolin-6-yl]-acrylamide] | 513 | 96 | 127 | 581 | 4530 | 964
5 | C=CCCOc1cc2ncnc(Nc3ccc(Br)cc3F)c2cc1NC(=O)C=C [Example 31, N-[4-(4-bromo-2-fluoro-phenylamino)-7-but-3-enyloxy-quinazolin-6-yl]-acrylamide] | 523 | 90 | 93 | 55 | 2530 | 686
6 | C=CC(=O)Nc1cc2c(Nc3ccc(Br)cc3F)ncnc2cc1OCCNC(=O)NCCC [Example 34, N-{4-(4-bromo-2-fluoro-phenylamino)-7-[2-(3-propyl-ureido)-ethoxy]-quinazolin-6-yl}-acrylamide] | 458 | 26 | 35 | 67 | 2540 | 678
7 | C=CC(=O)Nc1cc2c(Nc3ccc(Br)cc3F)ncnc2cc1OCCNC(=O)NC(C)C [Example 37, N-{4-(4-bromo-2-fluoro-phenylamino)-7-[2-(3-isopropyl-ureido)-ethoxy]-quinazolin-6-yl}-acrylamide] | 895 | 36 | 31 | 65 | 4540 | 682
8 | C=CC(=O)Nc1cc2c(Nc3ccc(Br)cc3F)ncnc2cc1OCCN(C)C(C)=O [Example 42, N-[7-[2-(acetyl-methyl-amino)-ethoxy]-4-(4-bromo-2-fluoro-phenylamino)-quinazolin-6-yl]-acrylamide] | 687 | 59 | 63 | 142 | 9560 | 786
9 | C=CC(=O)Nc1cc2c(Nc3ccc(Br)cc3F)ncnc2cc1SCCNC(C)=O [Example 43, N-[7-(2-acetylamino-ethylsulfanyl)-4-(4-bromo-2-fluoro-phenylamino)-quinazolin-6-yl]-acrylamide] | 785 | 109 | 104 | 4340 | 3670 | 987
10 | C=CC(=O)Nc1cc2c(Nc3ccc(Br)cc3F)ncnc2cc1OCCNC(=O)CSC [Example 46, N-{4-(4-bromo-2-fluoro-phenylamino)-7-[2-(2-methylsulfanyl-acetylamino)-ethoxy]-quinazolin-6-yl}-acrylamide] | 635 | 39 | 35 | 198 | 7520 | 656

Second part, led by results:

Row | IC50 (VEGFR2 (KDR)) [nM] | IC50 (EGFR1 (HER-1)) [nM] | IC50 [2] [nM] | IC50 [3] [nM] | IC50 [4] [nM] | SMILES | IC50 [1] [nM]
11 | 250 | 4 | 40 | 75 | 7600 | C=CC(=O)Nc1cc2c(Nc3ccc(Br)cc3F)ncnc2cc1OCCNC(N)=O [Example 24, N-[4-(4-bromo-2-fluoro-phenylamino)-7-(2-ureido-ethoxy)-quinazolin-6-yl]-acrylamide] | 90
12 | 250 | 5 | 49 | 80 | 10000 | C=CC(=O)NCCOc1cc2ncnc(Nc3ccc(Br)cc3F)c2cc1NC(=O)C=C [Example 26, N-{2-[6-acryloylamino-4-(4-bromo-2-fluoro-phenylamino)-quinazolin-7-yloxy]-ethyl}-acrylamide] | 87
13 | 250 | 3 | 30 | 50 | 9560 | C=CC(=O)Nc1cc2c(Nc3ccc(Br)cc3F)ncnc2cc1OCCNC(=O)CC [Example 27, N-[4-(4-bromo-2-fluoro-phenylamino)-7-(2-propionylamino-ethoxy)-quinazolin-6-yl]-acrylamide] | 96
14 | 259 | 25 | 31 | 198 | 4550 | C=CC(=O)Nc1cc2c(Nc3ccc(Br)cc3F)ncnc2cc1OCCOC [Example 32, N-[4-(4-bromo-2-fluoro-phenylamino)-7-(2-methoxy-ethoxy)-quinazolin-6-yl]-acrylamide] | 350
15 | 457 | 98 | 90 | 225 | 9560 | C=CC(=O)Nc1cc2c(Nc3ccc(Br)cc3F)ncnc2cc1OCCNC(=S)NC [Example 35, N-{4-(4-bromo-2-fluoro-phenylamino)-7-[2-(3-methyl-thioureido)-ethoxy]-quinazolin-6-yl}-acrylamide] | 951
16 | 354 | 91 | 89 | 43 | 722 | C=CC(=O)Nc1cc2c(Nc3ccc(Br)cc3F)ncnc2cc1OCCNC(=S)NCC [Example 36, N-{4-(4-bromo-2-fluoro-phenylamino)-7-[2-(3-ethyl-thioureido)-ethoxy]-quinazolin-6-yl}-acrylamide] | 389
17 | 324 | 20 | 21 | 245 | 2580 | C=CC(=O)Nc1cc2c(Nc3ccc(Br)cc3F)ncnc2cc1OCCNC(=O)NC(C)CC (stereo not drawn) [Example 38, N-{4-(4-bromo-2-fluoro-phenylamino)-7-[2-(3-sec-butyl-ureido)-ethoxy]-quinazolin-6-yl}-acrylamide] | 367
18 | 264 | 29 | 28 | 176 | 4520 | C=CNC(=O)NCCOc1cc2ncnc(Nc3ccc(Br)cc3F)c2cc1NC(=O)C=C [Example 39, N-{4-(4-bromo-2-fluoro-phenylamino)-7-[2-(3-vinyl-ureido)-ethoxy]-quinazolin-6-yl}-acrylamide] | 325
19 | 155 | 19 | 13 | 166 | 10000 | C=CCNC(=O)NCCOc1cc2ncnc(Nc3ccc(Br)cc3F)c2cc1NC(=O)C=C [Example 40, N-[7-[2-(3-allyl-ureido)-ethoxy]-4-(4-bromo-2-fluoro-phenylamino)-quinazolin-6-yl]-acrylamide] | 268
20 | 134 | 35 | 46 | 53 | 7860 | C=CC(=O)Nc1cc2c(Nc3ccc(Br)c(Cl)c3F)ncnc2cc1OCCNC(=O)N1CCOCC1 [Example 41, morpholine-4-carboxylic acid {2-[6-acryloylamino-4-(4-bromo-3-chloro-2-fluoro-phenylamino)-quinazolin-7-yloxy]-ethyl}-amide] | 221
21 | 161 | 14 | 16 | 98 | 2320 | C=CC(=O)Nc1cc2c(Nc3ccc(Br)cc3F)ncnc2cc1OCCNC(=O)COC [Example 44, N-{4-(4-bromo-2-fluoro-phenylamino)-7-[2-(2-methoxy-acetylamino)-ethoxy]-quinazolin-6-yl}-acrylamide] | 265
22 | 325 | 32 | 37 | 234 | 10000 | C=CC(=O)Nc1cc2c(Nc3ccc(Br)cc3F)ncnc2cc1OCCNC(=O)CO [Example 45, N-{4-(4-bromo-2-fluoro-phenylamino)-7-[2-(2-hydroxy-acetylamino)-ethoxy]-quinazolin-6-yl}-acrylamide] | 350
23 | 209 | 24 | 27 | 67 | 9570 | C=CC(=O)Nc1cc2c(Nc3ccc(Br)cc3F)ncnc2cc1OCCNC(=O)CS(C)(=O)=O [Example 47, N-{4-(4-bromo-2-fluoro-phenylamino)-7-[2-(2-methanesulfonyl-acetylamino)-ethoxy]-quinazolin-6-yl}-acrylamide] | 269
